The results in this text go back to ChEMBL document CHEMBL1201862, “PubChem BioAssay data set” (2004).

Some test systems named below: PC-3; HOP-92; EKVX; SW-620; SF-539; HOP-62; SNB-75; KM12; NCI-H226; T47D; NCI/ADR-RES; SF-268; OVCAR-8; SK-MEL-28; HCC 2998; MDA-MB-231; UACC-62; HT-29; LOX IMVI.
Assay in all cases: DTP human tumour cell line panel, 48 h

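Results reflect a 48-hour exposure of cells in 96-well plates to compound at five concentrations. Here, GI50 denotes the concentration required for 50% inhibition of growth.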 Calls of active or inactive are those of the source. Cut-off read from the data, not from the text of the source: active = GI50 up to about 1.1 µM and inactive = higher.

As a reminder, the GI50 is the concentration at which growth is held to half of that of the control.

Take `O=c1onc2c3ccccc3ncn12`: the GI50 in the test with PC-3, with HOP-92, in the test with EKVX, with SW-620, in the test with SF-539 and in the test on HOP-62 was > 100 µM (inactive) throughout. Moreover, the GI50 with SNB-75, with KM12, in the test with NCI-H226, in the test with T47D, in the test on NCI/ADR-RES and in the test with SF-268 was > 100 µM (inactive) in each case. The GI50 with OVCAR-8, with SK-MEL-28, in the test on HCC 2998, in the test on MDA-MB-231, in the test with UACC-62 and in the test with HT-29 was > 100 µM (inactive) each time. For the same compound, the GI50 in the test with LOX IMVI was > 100 µM (inactive).

For `CCCCC1Cc2cc(OC)ccc2-c2n1c1cc(OC)ccc1[n+]2C.CCCCC1Cc2cc(OC)ccc2-c2n1c1ccc(OC)cc1[n+]2C` (stereo not given), the GI50 in the test with PC-3 is 2.6 µM (inactive); in the test on HOP-92 it was 0.427 µM (active); in the test with EKVX, 0.466 µM (active); in the test on SW-620, 2.82 µM (inactive); in the test on SF-539, 3.34 µM (inactive); with HOP-62, 6.08 µM (inactive). Moreover, the GI50 is 6.19 µM (inactive) in the test on SNB-75; 0.873 µM (active) with KM12; 2.92 µM (inactive) with NCI-H226; 0.656 µM (active) with T47D; > 100 µM (inactive) with NCI/ADR-RES; 1.3 µM (inactive) in the test with SF-268. The GI50 in the test on OVCAR-8 is 2.75 µM (inactive); in the test on SK-MEL-28, 6.3 µM (inactive); in the test with HCC 2998, 0.703 µM (active); with MDA-MB-231, 2.63 µM (inactive); in the test on UACC-62 it was 0.528 µM (active); with HT-29 it was 1.97 µM (inactive). For the same compound, the GI50 in the test with LOX IMVI is 2.87 µM (inactive).

In the case of `CC(=O)OCC1OC(n2c(N)c(C#N)c(-c3ccc(C)cc3)c(C#N)c2=S)C(OC(C)=O)C(OC(C)=O)C1OC(C)=O` (stereo not given), the GI50 in the test with PC-3 is 31.8 µM (inactive); with HOP-92, 15.2 µM (inactive); in the test with EKVX, 18.3 µM (inactive); in the test on SW-620 it was 36 µM (inactive); in the test with SF-539, 4.91 µM (inactive); in the test on HOP-62 it was 20 µM (inactive). In addition, the GI50 with SNB-75 was 16 µM (inactive); with KM12, 79.1 µM (inactive); with NCI-H226, 3.53 µM (inactive); with T47D it was 17.5 µM (inactive); with NCI/ADR-RES, 30 µM (inactive); in the test with SF-268 it was 15.2 µM (inactive). In addition, the GI50 is 15.2 µM (inactive) with OVCAR-8; 38.7 µM (inactive) in the test with SK-MEL-28; 16.9 µM (inactive) in the test on HCC 2998; 44.9 µM (inactive) in the test with MDA-MB-231; 43.5 µM (inactive) in the test on UACC-62; 18.7 µM (inactive) in the test with HT-29. In addition, the GI50 with LOX IMVI is 32.7 µM (inactive).

On to `Cc1cc(NS(=O)(=O)c2ccc(NC(NC(=O)C(C(F)(F)F)C(F)(F)F)(C(F)(F)F)C(F)(F)F)cc2)no1`, for which the GI50 in the test on PC-3, in the test with HOP-92, with EKVX, in the test on SW-620, with SF-539 and in the test with HOP-62 was > 100 µM (inactive) in each case. Besides, the GI50 with SNB-75, in the test with KM12, in the test with NCI-H226, with T47D, in the test on NCI/ADR-RES and in the test on SF-268 was > 100 µM (inactive) throughout. Besides, the GI50 in the test on OVCAR-8, with SK-MEL-28, with HCC 2998, in the test with MDA-MB-231, in the test with UACC-62 and in the test on HT-29 was > 100 µM (inactive) in each case. The GI50 with LOX IMVI is > 100 µM (inactive).

For the compound `Cc1c2c(C(N)=O)nccc2c(C)c2c1c1ccccc1n2Cc1ccccc1`, the GI50 is 13 µM (inactive) with PC-3; 4.93 µM (inactive) with HOP-92; 43.6 µM (inactive) in the test with EKVX; 17.2 µM (inactive) in the test with SW-620; 19.1 µM (inactive) in the test with SF-539; 6.38 µM (inactive) in the test on HOP-62. In addition, the GI50 with SNB-75 is 5.33 µM (inactive); in the test with KM12 it was 21.6 µM (inactive); with NCI-H226 it was 23.7 µM (inactive); in the test on T47D, 29.2 µM (inactive); in the test on NCI/ADR-RES, 9.75 µM (inactive); in the test with SF-268, 28.4 µM (inactive). The GI50 with OVCAR-8 was 10.6 µM (inactive); in the test on SK-MEL-28, 54.5 µM (inactive); in the test with HCC 2998 it was 26.4 µM (inactive); with MDA-MB-231 it was 9.75 µM (inactive); in the test with UACC-62, 60.4 µM (inactive); in the test on HT-29, 18.8 µM (inactive). For the same compound, in the test on LOX IMVI, the GI50 is 4.41 µM (inactive).

Regarding `Nc1nccc(NCC2(CO)CC(CCc3ccccc3)C2)n1` (stereo not given), the GI50 is 15.1 µM (inactive) in the test with PC-3; 4.93 µM (inactive) in the test on HOP-92; 12.6 µM (inactive) in the test with EKVX; 18.3 µM (inactive) in the test with SW-620; 15.8 µM (inactive) in the test with SF-539; 18.2 µM (inactive) in the test on HOP-62. The GI50 is 19.9 µM (inactive) in the test with SNB-75; 17 µM (inactive) with KM12; 16 µM (inactive) in the test on NCI-H226; 6.52 µM (inactive) with T47D; 14.2 µM (inactive) in the test with NCI/ADR-RES; > 10 µM (inactive) in the test with SF-268. Also, the GI50 was 18.2 µM (inactive) with OVCAR-8; 16.8 µM (inactive) with SK-MEL-28; 19.5 µM (inactive) in the test on HCC 2998; 16.6 µM (inactive) with MDA-MB-231; 12.6 µM (inactive) with UACC-62; 11 µM (inactive) in the test with HT-29. In the test on LOX IMVI, the GI50 was 14.3 µM (inactive).

Regarding `NNC(=O)CNC(=O)CSc1nnc(COc2ccc(Cl)cc2)n1-c1ccccc1`, the GI50 in the test with PC-3, in the test with HOP-92, in the test on EKVX, with SW-620, in the test on SF-539 and in the test with HOP-62 was > 100 µM (inactive) in each case. Further, the GI50 in the test with SNB-75, in the test on KM12, in the test on NCI-H226, in the test with T47D, in the test on NCI/ADR-RES and with SF-268 was > 100 µM (inactive) throughout. Further, the GI50 with OVCAR-8, in the test with SK-MEL-28, in the test with HCC 2998, in the test on MDA-MB-231, in the test on UACC-62 and with HT-29 was > 100 µM (inactive) throughout. The GI50 in the test on LOX IMVI was > 100 µM (inactive).

As to `COc1cc(/C=C/C(=N\NC(=S)NN)c2sc(NNC(C)=O)nc2C)ccc1O`, the GI50 with PC-3, in the test with HOP-92, in the test on EKVX, in the test on SW-620, in the test on SF-539 and in the test with HOP-62 was > 100 µM (inactive) throughout. Further, the GI50 in the test with SNB-75 is > 100 µM (inactive); with KM12 it was 66.2 µM (inactive); in the test on NCI-H226 it was > 100 µM (inactive); in the test with T47D, > 100 µM (inactive); in the test on NCI/ADR-RES it was > 100 µM (inactive); in the test on SF-268, > 100 µM (inactive). The GI50 in the test with OVCAR-8, in the test with SK-MEL-28, with HCC 2998, in the test with MDA-MB-231, in the test with UACC-62 and in the test on HT-29 was > 100 µM (inactive) throughout. The GI50 with LOX IMVI is > 100 µM (inactive).

As to `Cc1nc2cccc(F)c2c(=O)n1-c1nnc(C(F)(F)F)s1`, the GI50 in the test on PC-3, with HOP-92, with EKVX, in the test with SW-620, with SF-539 and in the test on HOP-62 was > 10 µM (inactive) throughout. Moreover, the GI50 in the test on SNB-75, with KM12, with NCI-H226, in the test on T47D, in the test on NCI/ADR-RES and in the test on SF-268 was > 10 µM (inactive) throughout. In addition, the GI50 with OVCAR-8, with SK-MEL-28, in the test on HCC 2998, in the test on MDA-MB-231, in the test with UACC-62 and with HT-29 was > 10 µM (inactive) each time. In addition, the GI50 in the test on LOX IMVI was > 10 µM (inactive).

As to `N/C(=N\O)N/N=C/c1cc(Br)cc(Br)c1O`, the GI50 in the test with PC-3 is 5.74 µM (inactive); in the test with HOP-92, 2.86 µM (inactive); in the test with EKVX, 14.9 µM (inactive); with SW-620, 8.95 µM (inactive); in the test on SF-539, 4.49 µM (inactive); in the test with HOP-62, 4.21 µM (inactive). Also, the GI50 in the test with SNB-75 is 2.86 µM (inactive); with KM12 it was 5.08 µM (inactive); in the test with NCI-H226, 1.29 µM (inactive); with T47D, 1.75 µM (inactive); with NCI/ADR-RES, 1.08 µM (active); in the test on SF-268, 1.75 µM (inactive). Besides, the GI50 is 2.37 µM (inactive) with OVCAR-8; 8.73 µM (inactive) in the test on SK-MEL-28; 6.53 µM (inactive) with HCC 2998; 4.6 µM (inactive) in the test with MDA-MB-231; 1.46 µM (inactive) in the test with UACC-62; 11.4 µM (inactive) with HT-29. In the test on LOX IMVI, the GI50 was 2.35 µM (inactive).
